Values after ≈ are worked out from the molar mass of the structure shown.
Columns and labels:
Proteus vulgaris = test: Antibacterial activity against Proteus vulgaris; type: functional
Proteus mirabilis = test: Antibacterial activity against Proteus mirabilis; type: functional
Staphylococcus aureus = test: Antibacterial activity against Staphylococcus aureus; type: functional
Fusarium oxysporum = test: Antifungal activity against Fusarium oxysporum; type: functional
Salmonella enterica = test: Antibacterial activity against Salmonella typhi; type: functional, Salmonella enterica subsp. enterica serovar Typhi
Macrophomina phaseolina = test: Antifungal activity against Macrophomina phaseolina; type: functional

SMILES	MIC (Proteus vulgaris)	MIC (Proteus mirabilis)	MIC (Staphylococcus aureus)	MIC (Fusarium oxysporum)	MIC (Salmonella enterica)	MIC (Macrophomina phaseolina)
COc1ccc(N2C(=O)[C@H]3[C@@H]2[C@H]2[C@H](c4ccccc4)[C@]4(COc5ccccc5C4=O)ON2[C@@H]3C[Se]c2ccccc2)cc1	30 µg/mL (≈ 47.1 µM)	55 µg/mL (≈ 86.3 µM)	45 µg/mL (≈ 70.6 µM)	125 µg/mL (≈ 196 µM)	20 µg/mL (≈ 31.4 µM)	50 µg/mL (≈ 78.4 µM)
COc1ccc(N2C(=O)[C@H]3[C@@H]2[C@H]2[C@H](c4ccc(C)cc4)[C@]4(COc5ccccc5C4=O)ON2[C@@H]3C[Se]c2ccccc2)cc1	40 µg/mL (≈ 61.4 µM)	65 µg/mL (≈ 99.8 µM)	45 µg/mL (≈ 69.1 µM)	150 µg/mL (≈ 230 µM)	35 µg/mL (≈ 53.7 µM)	75 µg/mL (≈ 115 µM)
COc1ccc([C@H]2[C@@H]3[C@H]4[C@H](C(=O)N4c4ccc(OC)cc4)[C@@H](C[Se]c4ccccc4)N3O[C@@]23COc2ccccc2C3=O)cc1	15 µg/mL (≈ 22.5 µM)	25 µg/mL (≈ 37.4 µM)	40 µg/mL (≈ 59.9 µM)	125 µg/mL (≈ 187 µM)	45 µg/mL (≈ 67.4 µM)	75 µg/mL (≈ 112 µM)
COc1ccc(N2C(=O)[C@H]3[C@@H]2[C@H]2[C@H](c4ccc(Cl)cc4)[C@]4(COc5ccccc5C4=O)ON2[C@@H]3C[Se]c2ccccc2)cc1	10 µg/mL (≈ 14.9 µM)	20 µg/mL (≈ 29.8 µM)	20 µg/mL (≈ 29.8 µM)	75 µg/mL (≈ 112 µM)	25 µg/mL (≈ 37.2 µM)	50 µg/mL (≈ 74.4 µM)
COc1ccc(N2C(=O)[C@H]3[C@@H]2[C@H]2[C@H](c4ccc(Br)cc4)[C@]4(COc5ccccc5C4=O)ON2[C@@H]3C[Se]c2ccccc2)cc1	25 µg/mL (≈ 34.9 µM)	30 µg/mL (≈ 41.9 µM)	30 µg/mL (≈ 41.9 µM)	150 µg/mL (≈ 209 µM)	45 µg/mL (≈ 62.8 µM)	75 µg/mL (≈ 105 µM)
COc1ccc(N2C(=O)[C@H]3[C@@H]2[C@H]2[C@H](c4ccccc4)[C@]4(CCc5ccccc5C4=O)ON2[C@@H]3C[Se]c2ccccc2)cc1	40 µg/mL (≈ 62.9 µM)	55 µg/mL (≈ 86.5 µM)	25 µg/mL (≈ 39.3 µM)	125 µg/mL (≈ 197 µM)	45 µg/mL (≈ 70.8 µM)	75 µg/mL (≈ 118 µM)
COc1ccc(N2C(=O)[C@H]3[C@@H]2[C@H]2[C@H](c4ccc(C)cc4)[C@]4(CCc5ccccc5C4=O)ON2[C@@H]3C[Se]c2ccccc2)cc1	45 µg/mL (≈ 69.3 µM)	50 µg/mL (≈ 77 µM)	40 µg/mL (≈ 61.6 µM)	75 µg/mL (≈ 115 µM)	35 µg/mL (≈ 53.9 µM)	25 µg/mL (≈ 38.5 µM)
COc1ccc([C@H]2[C@@H]3[C@H]4[C@H](C(=O)N4c4ccc(OC)cc4)[C@@H](C[Se]c4ccccc4)N3O[C@@]23CCc2ccccc2C3=O)cc1	35 µg/mL (≈ 52.6 µM)	50 µg/mL (≈ 75.1 µM)	45 µg/mL (≈ 67.6 µM)	125 µg/mL (≈ 188 µM)	40 µg/mL (≈ 60.1 µM)	50 µg/mL (≈ 75.1 µM)
COc1ccc(N2C(=O)[C@H]3[C@@H]2[C@H]2[C@H](c4ccc(Cl)cc4)[C@]4(CCc5ccccc5C4=O)ON2[C@@H]3C[Se]c2ccccc2)cc1	45 µg/mL (≈ 67.2 µM)	40 µg/mL (≈ 59.7 µM)	35 µg/mL (≈ 52.2 µM)	50 µg/mL (≈ 74.6 µM)	30 µg/mL (≈ 44.8 µM)	25 µg/mL (≈ 37.3 µM)
COc1ccc(N2C(=O)[C@H]3[C@@H]2[C@H]2[C@H](c4ccc(Br)cc4)[C@]4(CCc5ccccc5C4=O)ON2[C@@H]3C[Se]c2ccccc2)cc1	35 µg/mL (≈ 49 µM)	50 µg/mL (≈ 70 µM)	45 µg/mL (≈ 63 µM)	150 µg/mL (≈ 210 µM)	35 µg/mL (≈ 49 µM)	75 µg/mL (≈ 105 µM)
COC(=O)Nc1nc2ccccc2[nH]1 [CARBENDAZIM]				18 µg/mL (≈ 94.1 µM)		15 µg/mL (≈ 78.5 µM)
CN(C)[C@@H]1C(O)=C(C(N)=O)C(=O)[C@@]2(O)C(O)=C3C(=O)c4c(O)cccc4[C@@](C)(O)[C@H]3C[C@@H]12 [TETRACYCLINE]	15 µg/mL (≈ 33.8 µM)	20 µg/mL (≈ 45 µM)	10 µg/mL (≈ 22.5 µM)		15 µg/mL (≈ 33.8 µM)	

— ChEMBL document CHEMBL1158605, “Synthesis of novel beta-lactam fused spiroisoxazolidine chromanones and tetralones as potent antimicrobial agent for human and plant pathogens” (2010)
